Laboratory results from paper PMC8432116, “Drug–Drug Interaction between Tacrolimus and Vonoprazan in Kidney Transplant Recipients” (Journal of Clinical Medicine, 2021).
Values joined by “and” are separate entries in the source; they are usually repeats but may differ in a detail not shown here. Equal values may be shown once. Read-outs that look alike come from different tables or passages of the source.

Key:
[1] = Laboratory data of liver and kidney function before and after the switch; format: in vivo, human; conditions: during the named PPI phase; 18 recipients on tacrolimus
Experimental: (§1) Eighteen kidney transplant recipients were recruited for this study from February 2015 to July 2020 (Table 1). The recipients were treated with tacrolimus-based immunosuppression, tacrolimus QD (Graceptor®; Astellas Pharma, Tokyo, Japan) in combination with mycophenolate mofetil and corticosteroids. The initial dose of tacrolimus QD was 0.15–0.20 mg/kg/day for 3–7 days before transplantation. The patients’ PPIs were switched from oral rabeprazole to vonoprazan (TAK-438; Takecab®; Takeda Pharmaceutical Company Limited., Tokyo, Japan) for intensive gastric acid suppression on postoperative days (POD) 3–43. The median (range) dose of oral rabeprazole and vonoprazan were 0.16 (0.11–0.22) and 0.31 (0.11–0.44) mg/kg/day, respectively (Table 1). Blood concentrations of tacrolimus were […] when the rabeprazole was switched to vonoprazan. Liver function for the patients was normal. […] Major symptoms due to gastric ulcer, retching, and heartburn disappeared by switching from rabeprazole to vonoprazan.

[2] = Clinical observation of adverse events and gastric symptoms after switching; format: in vivo, human
Experimental: as §1

[3] = Estimated maximum concentration in the intestinal lumen according to DDI guidelines; set-up: species or system human
Description: P-glycoprotein, a drug efflux transporter expressed in the intestinal lumen, can be considered in addition to CYP as the mechanism of the DDIs between vonoprazan and tacrolimus.

P-glycoprotein = test system: P-glycoprotein; set-up: method as in PMID 15467223; conditions: read-out: IC50 for inhibition of P-glycoprotein transporter activity; cited from earlier work
[4] = Whole blood trough concentration and C/D ratio of tacrolimus before and after switching PPI from rabeprazole to vonoprazan; format: in vivo, human; conditions: for Trough tacrolimus concentration, typical case / C/D ratio of tacrolimus, typical case: single case; for Percentage increase of the C/D ratio: vonoprazan coadministration; for Tacrolimus trough concentration, median (range): whole blood, 18 kidney transplant recipients
Experimental: as §1
Whole blood concentrations of tacrolimus were measured using the ARCHITECT chemiluminescent immunoassay system (Abbot, Abbot Park, IL, USA). Blood samples were collected in the morning just before the morning administration of tacrolimus to determine the trough levels. Tacrolimus dose was adjusted to achieve predefined target concentration ranges of 5–10 ng/mL (POD −3–14), 7–8 ng/mL (POD 14–28), and 5–8 ng/mL (after POD 28). The change in concentration/dose (C/D; in nanogram per milliliter/milligram per kilogram) ratio of tacrolimus before and after initiating oral vonoprazan was calculated to assess the DDIs.
Genomic DNA was extracted from peripheral whole blood samples using the QIAamp DNA blood kit system (Qiagen, Hilden, Germany) according to the manufacturer’s instruction. Subjects were genotyped for CYP2C19 rs4244285 (CYP2C19*2), CYP2C19 rs4986893 (CYP2C19*3), and CYP3A5 rs776746 (CYP3A5*3) polymorphisms. These variants were identified by real-time polymerase chain reaction (PCR) using a TaqMan® Drug Metabolism Genotyping Assays (Thermo Fisher Scientific, Waltham, MA, USA) with a QuantStudio 3 real-time PCR system (Thermo Fisher Scientific). Recipients were categorized into two groups based on the CYP2C19 genotypes (extensive metabolizer (EM; CYP2C19*1/*1)), intermediate metabolizer (IM; CYP2C19*1/*2 and *1/*3), and poor metabolizer (PM; *2/*2, *2/*3, and *3/*3)] and the CYP3A5 genotypes (CYP3A5*1 carrier (CYP3A5*1/*1 and CYP3A5*1/*3)) and the noncarrier (CYP3A5*3/*3)].
The Wilcoxon signed-rank test was used to compare the difference in the concentration and C/D ratio of tacrolimus before and after switching to vonoprazan. Differences in the concentration and C/D ratio of tacrolimus among the genotypes were compared by the Mann–Whitney U test. The statistical analyses were carried out using SPSS 26.0 (IBM, Tokyo, Japan). Results with a p value of <0.05 were considered statistically significant.

[5] = cited from earlier work; for Increase in C/D ratio of tacrolimus after the conversion: outpatient phase of post-transplantation
[6] = set-up: method as in PMID 19177031; conditions: cited from earlier work
[7] = CYP2C19 EM, n=5, rabeprazole to vonoprazan
[8] = CYP2C19 IM/PM, n=13, Rabeprazole
[9] = CYP2C19 IM/PM, n=13, Vonoprazan
[10] = CYP2C19 IM/PM, n=13, rabeprazole to vonoprazan
[11] = CYP3A5 *1 carrier, n=5, Rabeprazole
[12] = CYP3A5 *1 carrier, n=5, Vonoprazan
[13] = CYP3A5 *1 carrier, n=5, rabeprazole to vonoprazan
[14] = CYP3A5 *1 noncarrier, n=13, Rabeprazole
[15] = CYP3A5 *1 noncarrier, n=13, Vonoprazan
[16] = CYP3A5 *1 noncarrier, n=13, rabeprazole to vonoprazan
[17] = rabeprazole to vonoprazan, 18 recipients
[18] = vonoprazan coadministration vs rabeprazole

CNCc1cc(-c2ccccc2F)n(S(=O)(=O)c2cccnc2)c1.O=C(O)/C=C/C(=O)O [Vonoprazan, 1-[5-(2-Fluorophenyl)-1-(pyridin-3-ylsulfonyl)-1H-pyrrol-3-yl]-N-methylmethanamine monofumarate]
Alanine aminotransferase, median (range) [1]: 22 IU/L | Aspartate aminotransferase, median (range) [1]: 15 IU/L | Blood urine nitrogen, median (range) [1]: 17.4 (7.5–45.4) mg/dL | Serum creatinine, median (range) [1]: 1.21 (0.58–2.84) mg/dL | Major symptoms due to gastric ulcer, retching and heartburn ([2]; switching from rabeprazole to vonoprazan): disappeared | Estimated maximum concentration in the intestinal lumen ([3]; administered at 20 mg): 231 µM | IC50 (P-glycoprotein): 50 µM

COCCCOc1ccnc(C[S+]([O-])c2nc3ccccc3[nH]2)c1C (stereo not shown) [Rabeprazole]
Alanine aminotransferase, median (range) [1]: 28 IU/L | Aspartate aminotransferase, median (range) [1]: 16 IU/L | Blood urine nitrogen, median (range) [1]: 24.2 (9.8–78.7) mg/dL | Serum creatinine, median (range) [1]: 1.55 (0.62–4.31) mg/dL | Estimated maximum concentration in the intestinal lumen ([3]; administered at 10 mg): 111 µM | IC50 (P-glycoprotein): ≥ 100 µM

C=CC[C@@H]1/C=C(\C)C[C@H](C)C[C@H](OC)[C@H]2O[C@@](O)(C(=O)C(=O)N3CCCC[C@H]3C(=O)O[C@H](/C(C)=C/[C@@H]3CC[C@@H](O)[C@H](OC)C3)[C@H](C)[C@@H](O)CC1=O)[C@H](C)C[C@@H]2OC [Tacrolimus]
Tacrolims C/D Ratio, median ([4]; CYP2C19 EM, n=5, Rabeprazole): 25.6 (ng/mL)/(mg/kg/day) | Tacrolimus Concentration, median ([4]; CYP2C19 EM, n=5, Rabeprazole): 4.0 ng/mL | Tacrolims C/D Ratio, median ([4]; CYP2C19 EM, n=5, Vonoprazan): 40.7 (ng/mL)/(mg/kg/day) | Tacrolimus Concentration, median ([4]; CYP2C19 EM, n=5, Vonoprazan): 8.5 ng/mL | ΔC/D Ratio, median [4, 7]: 15.1 | ΔConcentration, median [4, 7]: 3.6 ng/mL | Tacrolims C/D Ratio, median [4, 8]: 39.5 (ng/mL)/(mg/kg/day) | Tacrolimus Concentration, median [4, 8]: 5.3 ng/mL | Tacrolims C/D Ratio, median [4, 9]: 50.4 (ng/mL)/(mg/kg/day) | Tacrolimus Concentration, median [4, 9]: 7.7 ng/mL | ΔC/D Ratio, median [4, 10]: 6.3 | ΔConcentration, median [4, 10]: 3 ng/mL | Tacrolims C/D Ratio, median [4, 11]: 36.9 (ng/mL)/(mg/kg/day) | Tacrolimus Concentration, median [4, 11]: 5.3 ng/mL | Tacrolims C/D Ratio, median [4, 12]: 45.1 (ng/mL)/(mg/kg/day) | Tacrolimus Concentration, median [4, 12]: 8.5 ng/mL | ΔC/D Ratio, median [4, 13]: 14.6 | ΔConcentration, median [4, 13]: 2.8 ng/mL | Tacrolims C/D Ratio, median [4, 14]: 44.9 (ng/mL)/(mg/kg/day) | Tacrolimus Concentration, median [4, 14]: 5.0 ng/mL | Tacrolims C/D Ratio, median [4, 15]: 50.4 (ng/mL)/(mg/kg/day) | Tacrolimus Concentration, median [4, 15]: 7.5 ng/mL | ΔC/D Ratio, median [4, 16]: 18.3 | ΔConcentration, median [4, 16]: 3.3 ng/mL | Percent change in tacrolimus C/D ratio after the switching, median (range) [4, 17]: 41.8% and 41.8 (2.7–129.8) % | Percent change in tacrolimus concentration after the switching, median (range) [4, 17]: 65.8% and 65.8 (0.0–192.5) % | Trough tacrolimus concentration, typical case ([4]; after switching to vonoprazan): 9.4 to 10.7 ng/mL | C/D ratio of tacrolimus, typical case ([4]; rabeprazole phase): 26.2–29.0 | Trough tacrolimus concentration, typical case ([4]; rabeprazole phase): 3.8 to 4.7 ng/mL | C/D ratio of tacrolimus, typical case ([4]; vonoprazan phase, 10 mg, before dose escalation): 33.6–37.1 | C/D ratio of tacrolimus, typical case ([4]; vonoprazan phase, after escalation to 20 mg): 41.3–48.8 | Elevation in C/D ratio of tacrolimus [4, 18]: 1.4 fold | Elevation in blood concentration of tacrolimus [4, 18]: 1.7 fold | Percentage increase of the C/D ratio ([4]; CYP3A5*1 carriers): 44.4% | Percentage increase of the C/D ratio ([4]; CYP3A5*1 noncarriers): 39.1% | Tacrolimus trough concentration, median (range) ([4]; with rabeprazole, before switching): 5.2 (3.6–7.4) ng/mL | Tacrolimus trough concentration, median (range) ([4]; with vonoprazan, after switching): 8.1 (6.1–11.7) ng/mL | Tacrolimus C/D ratio, median (range) ([4]; with rabeprazole, before switching, 18 recipients): 38.1 (16.5–138.1) (ng/mL)/(mg/kg) | Tacrolimus C/D ratio, median (range) ([4]; with vonoprazan, 7 days after initiating, 18 recipients): 48.9 (26.6–207.2) (ng/mL)/(mg/kg) | Adverse events ([2]; all patients, after switching to vonoprazan, tacrolimus kept in therapeutic range): No adverse event was observed | Increase in C/D ratio of tacrolimus after the conversion ([5]; ref 27): 10.6% | Increase in C/D ratio of tacrolimus after the conversion ([5]; ref 30): no increase | Increase of the C/D ratio of tacrolimus after switching rabeprazole to vonoprazan ([5]; outpatients 2–7 years post-transplantation): 1.1 fold | Increase of tacrolimus trough levels after switching to vonoprazan ([5]; outpatients, even in the CYP2C19 IM/PM in the CYP3A5*1 noncarriers): no significant increase | Therapeutic range of blood concentration [6]: 5 to 15 ng/mL
